The source of these data is ChEMBL document CHEMBL4840325, “Discovery of an Unexpected 1,4-Oxazepine-Linked seco-Fluostatin Heterodimer by Inactivation of the Oxidoreductase-Encoding Gene flsP” (2021).

One experiment has as its system MCF7. Put plainly: Cytotoxicity against human MCF7 cells assessed as reduction in cell viability at 0.5 to 16 uM measured after 72 hrs by SRB assay. The experiment is classed as functional, cell-based. As to conditions: dose 0.5-16 µM.
A further experiment relates to Candida albicans. Description: Antifungal activity against Candida albicans SC5314 assessed as fungal growth inhibition incubated for 16 to 18 hrs by broth microdilution method. The experiment is classed as functional. As to conditions: time 16-18 hrs. (Broth dilution looks for growth in wells or tubes with falling amounts of substance.)
For a further experiment, the system named is SF-268. Description: Cytotoxicity against human SF-268 cells assessed as reduction in cell viability at 0.5 to 16 uM measured after 72 hrs by SRB assay. As to conditions: dose 0.5-16 µM. The experiment is classed as functional, cell-based. (In general: In SRB staining, fixed cells bind dye roughly in proportion to their protein.)
The subject of another experiment is HepG2. Put plainly: Cytotoxicity against human HepG2 cells assessed as reduction in cell viability at 0.5 to 16 uM measured after 72 hrs by SRB assay. As to conditions: dose 0.5-16 µM. The class given is functional, cell-based.

In brackets after ≈: the same amount, converted by molar mass. Activity calls are given as the source filed them.

As usually defined, the MIC is the smallest concentration in the dilution series that meets the test's criterion for growth inhibition. Consider `CO[C@@H]1c2c(cc(O)c3c2C(=O)c2cccc(O)c2-3)C(=O)C(C)(Cl)[C@H]1O` (stereo partly specified), for which the outcome in the experiment with MCF7, in the experiment on SF-268 and in the experiment on HepG2 was inactive. Besides, the MIC in the experiment on Candida albicans came to 100 µM (≈ 37.5 µg/mL).

With `CC1(Nc2ccccc2C(=O)O)C(=O)c2cc(O)c3c(c2[C@@H](O)[C@@H]1O)C(=O)c1cccc(O)c1-3` (stereo partly specified), the outcome with MCF7, with SF-268 and in the experiment on HepG2 was inactive. Also, the MIC with Candida albicans was determined as 100 µM (≈ 46.1 µg/mL).

On to `C[C@]12O[C@H]1[C@H](Nc1ccccc1C(=O)O)c1c(cc(O)c3c1C(=O)c1cccc(O)c1-3)C2=O`, for which the outcome in the experiment on MCF7, with SF-268 and in the experiment on HepG2 was inactive. The minimum inhibitory concentration (MIC) in the experiment with Candida albicans was 100 µM (≈ 44.3 µg/mL).

As for `C[C@]12O[C@H]1[C@H](n1oc(=O)c3ccccc31)c1c(cc(O)c3c1C(=O)c1cccc(O)c1-3)C2=O`, the outcome in the experiment on MCF7, in the experiment with SF-268 and with HepG2 was inactive.

For the compound `CC(=O)/C=C/c1c2c(c3c4c1c(O)nn4[C@@H]1c4c(cc(O)c5c4C(=O)c4cccc(O)c4-5)C(=O)[C@](C)(O3)[C@H]1O)-c1c(O)cccc1C2=O`, the result in the experiment on MCF7, in the experiment with SF-268 and in the experiment with HepG2 was inactive.

As for `CCC(C)C(=O)O[C@@H]1c2c(cc(O)c3c2C(=O)c2cccc(O)c2-3)C(=O)C(C)(Cl)[C@H]1O` (stereo partly specified), the result in the experiment with MCF7, in the experiment with SF-268 and in the experiment on HepG2 was inactive.
